Assay results taken from PubChem BioAssay (NCI).
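Method: 48-hour compound exposure of cells in 96-well plates, five concentrations, linear interpolation of endpoints. At the TGI there is no net growth.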 *1 amine or outer side, *2 acyl side, *3 side chain or, on linkers, in order; H or OH if unused. Where a SMILES comes first, the peptide text is derived from it. [ ]: non-standard residue; d: D form. The star is where a group is joined. X31 = CC(=O)N(C)SCC(N[*:1])C(=O)[*:2]; X47 = CC(=O)N(C)SCC(N*)/C(O)=N\O; Cbz = O=C(OCc1ccccc1)*; Bn = c1ccc(C*)cc1; For = O=C*

Key:
Assay in all cases: NCI-60 cell line screen, 48 h
ACHN renal = system: ACHN renal
COLO 205 colon = system: COLO 205 colon
HCC-2998 colon = system: HCC-2998 colon
HCT-116 colon = system: HCT-116 colon
HCT-15 colon = system: HCT-15 colon
HOP-62 NSCLC = system: HOP-62 NSCLC
K-562 leukemia = system: K-562 leukemia
KM12 colon = system: KM12 colon
MALME-3M melanoma = system: MALME-3M melanoma
MCF7 breast = system: MCF7 breast
MDA-N = system: MDA-N
NCI-H460 lung = system: NCI-H460 lung
OVCAR-5 ovarian = system: OVCAR-5 ovarian
OVCAR-8 ovarian = system: OVCAR-8 ovarian
PC-3 prostate = system: PC-3 prostate
SF-268 CNS = system: SF-268 CNS
SK-MEL-2 melanoma = system: SK-MEL-2 melanoma
SR leukemia = system: SR leukemia
SW-620 colon = system: SW-620 colon
UACC-257 melanoma = system: UACC-257 melanoma

SMILES | TGI (ACHN renal) [µM] | TGI (COLO 205 colon) [µM] | TGI (HCC-2998 colon) [µM] | TGI (HCT-116 colon) [µM] | TGI (HCT-15 colon) [µM] | TGI (HOP-62 NSCLC) [µM] | TGI (K-562 leukemia) [µM] | TGI (KM12 colon) [µM] | TGI (MALME-3M melanoma) [µM] | TGI (MCF7 breast) [µM] | TGI (MDA-N) [µM] | TGI (NCI-H460 lung) [µM] | TGI (OVCAR-5 ovarian) [µM] | TGI (OVCAR-8 ovarian) [µM] | TGI (PC-3 prostate) [µM] | TGI (SF-268 CNS) [µM] | TGI (SK-MEL-2 melanoma) [µM] | TGI (SR leukemia) [µM] | TGI (SW-620 colon) [µM] | TGI (UACC-257 melanoma) [µM]
CC(=O)N(C)SCC(NC(=O)C(Cc1ccccc1)NC(=O)OCc1ccccc1)C(=O)NC(Cc1ccccc1)C(=O)NC(Cc1cn(C=O)c2ccccc12)C(=O)NC(CCCCNC(=O)OCc1ccccc1)C(=O)NC(C(=O)NC(CSN(C)C(C)=O)/C(O)=N\O)C(C)OCc1ccccc1 (stereo not given) (Cbz-F[X31]FW(For)K(Cbz)T(Bn)-X47; configuration not given here) | > 100 | > 100 | > 100 | > 100 | > 100 | > 100 | > 100 | > 100 | > 100 | > 100 | > 100 | > 100 | > 100 | > 100 | > 100 | > 100 | > 100 | > 100 | > 100 | > 100
C=C(C)C(=O)O[C@H]1C/C(CO)=C/CCC(=C)C(OC(C)=O)[C@H]2OC(=O)C(=C)[C@H]12 (stereo not given in full) | 22.9 | 15.7 | 32 | 13.7 | 33.6 | 73.8 | 11.7 | 33.3 | 26.7 | 22.3 | 19.1 | 41.7 | 88.7 | 39.8 | 58.9 | 10.9 | 35.6 | 17.5 | 74.2 | 24.8
CO/N=C(\C)c1ccc(Nc2c3ccccc3nc3occc23)cc1 | 35.2 | 6.37 | 1.94 | 12.1 | 13.1 | 16.2 | 37.3 | 12.5 | 0.895 | 1.59 | 0.379 | 9.05 | 32.2 | 14.8 | 49.3 | 18.6 | 1.94 | 21.9 | 18.9 | 44.1
CCCCCC(C)(C)CCC(=O)OC1OC(COC2OC(COC3OC(CO)C(O)C(O)C3O)C(O)C(O)C2O)C(O)C(O)C1O (stereo not given) | > 100 | > 100 | > 100 | > 100 | > 100 | > 100 | > 100 | > 100 | > 100 | > 100 | > 100 | > 100 | > 100 | > 100 | > 100 | > 100 | > 100 | > 100 | > 100 | > 100
O=c1cc(NCCCCCO)[nH]c(=O)[nH]1 | > 100 | > 100 | > 100 | > 100 | > 100 | > 100 | > 100 | > 100 | > 100 | > 100 | > 100 | > 100 | > 100 | > 100 | > 100 | > 100 | > 100 | > 100 | > 100 | > 100
O=c1sc2c(s1)SSSSS2 | > 50 | > 50 | > 50 | > 50 | > 50 | > 50 | > 50 | > 50 | > 50 | > 50 | > 50 | > 50 | > 50 | > 50 | > 50 | > 50 | > 50 | > 50 | > 50 | > 50
O=P1(C(O)/C=C/c2ccccc2)N(Cc2ccccc2)[C@H](c2ccccc2)[C@@H](c2ccccc2)N1Cc1ccccc1 (stereo not given in full) | > 95.4 | 31.8 | > 100 | > 100 | > 85.3 | > 93.3 | > 80.6 | > 100 | 99.7 | > 100 | > 100 | > 79.1 | > 100 | > 55.1 | > 94.7 | > 100 | 41.5 | 70.7 | > 100 | 57.6
CCOC(=O)CN1C(=O)c2c(c(C)n(-c3ccccc3)c2C)C1=O | > 100 | > 100 | > 100 | > 100 | > 100 | > 100 | > 100 | > 100 | > 100 | > 100 | > 100 | > 100 | > 100 | > 100 | > 100 | > 100 | > 100 | > 100 | > 100 | > 100
NC(=O)c1nnc2ccc(F)cc2c1N | > 100 | > 100 | > 100 | > 100 | > 100 | > 100 | > 100 | > 100 | > 100 | > 100 | > 100 | > 100 | > 100 | > 100 | > 100 | > 100 | > 100 | > 100 | > 100 | > 100
O=C(O)c1ccccc1NC(c1ccccc1)c1ccc2cccnc2c1O (stereo not given) | > 100 | 80.9 | > 100 | > 64.2 | > 58.9 | > 100 | 53.3 | > 100 | > 56.4 | > 62.4 | > 100 | 63.4 | 58 | > 100 | > 88.8 | > 43.5 | > 100 | > 46.8 | 46.4 | 43.9
C=CCN1CCC(OC(=O)C(O)(C#CC)C2CCCC2)CC1 (stereo not given) | > 100 | > 100 | > 100 | > 100 | > 100 | > 100 | > 100 | > 100 | > 100 | > 100 | > 100 | > 100 | > 100 | > 100 | > 100 | > 100 | > 100 | > 100 | > 100 | > 100
O=C(CN1CCN(Cc2ccccc2)CC1)c1ccc2[nH]c(=O)oc2c1 | > 100 | > 100 | > 100 | > 100 | > 100 | > 100 | > 100 | > 100 | 51.2 | > 100 | > 100 | > 100 | > 100 | > 100 | > 100 | > 100 | > 100 | > 100 | > 100 | > 100
